This is an account of results in patent US11065311B2, “Retroviral vector with mini-promoter cassette” (DENOVO BIOPHARMA LLC, priority 2012, dated 2021).

The data set deals with U87 cells. To be noted: MTS. The method, then:
Cell were seeded at 3E3 cells in 96-well plates the day before. At 24 hour post cell seeding, PALA at 0.00975, 0.039, 0.156, 0.625, 2.5, 10, 40 and 160 uM were added to the culture for 5 consecutive days followed by an MTS assay to determine the cell viability. […] A range of cytosine concentrations (0.2, 1, 5 10 mM) in culture was also determined by performing the same experiment described above.

Consider `Nc1cc[nH]c(=O)n1` [cytosine], for which, for the setting “0.2, 1, 5 10 mM cytosine in culture”, the “tolerance of cells to cytosine” value is given as “tolerate cytosine in all concentrations tested”.

On to N-(phosphonacetyl)-L-aspartate [PALA], for which, for the setting “read-out: ICH of PALA, naive U87, U87 with pAC3-yCD2 and with pAC3.S1-yCD2, 5 consecutive days”, the IC50 was 8 to 30 µM.
